Legend:
[1] = target: T1, A. baumannii MsbA (Acinetobacter baumannii, UniProt A0A0B9X4I2); conditions: POPG nanodiscs, no TBT1
T1 sequence (A0A0B9X4I2 1-575): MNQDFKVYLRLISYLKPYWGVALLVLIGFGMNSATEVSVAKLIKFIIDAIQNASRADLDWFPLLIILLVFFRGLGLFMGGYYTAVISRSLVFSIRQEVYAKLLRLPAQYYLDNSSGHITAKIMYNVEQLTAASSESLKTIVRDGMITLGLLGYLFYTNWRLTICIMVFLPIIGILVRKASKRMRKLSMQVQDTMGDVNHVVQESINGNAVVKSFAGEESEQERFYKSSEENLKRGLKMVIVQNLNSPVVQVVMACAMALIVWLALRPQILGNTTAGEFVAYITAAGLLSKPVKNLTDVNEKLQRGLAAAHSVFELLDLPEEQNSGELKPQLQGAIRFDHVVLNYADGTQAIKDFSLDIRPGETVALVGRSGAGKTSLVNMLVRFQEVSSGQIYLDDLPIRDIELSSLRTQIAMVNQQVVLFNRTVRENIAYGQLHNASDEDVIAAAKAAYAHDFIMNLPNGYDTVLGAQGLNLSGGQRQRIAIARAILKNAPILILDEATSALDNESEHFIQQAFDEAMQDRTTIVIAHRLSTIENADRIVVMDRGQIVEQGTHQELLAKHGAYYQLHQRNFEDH

[2] = target: T1, A. baumannii MsbA; experiment: ATPase activity assay; type: biochemical; conditions: stimulation of ATPase activity; allosteric, central substrate (LPS) binding site

| Compound | ATPase activity, Michaelis-Menten kinetics [1] | EC50 [2] [µM] |
| --- | --- | --- |
| Nc1ncnc2c1ncn2[C@@H]1O[C@H](COP(=O)(O)OP(=O)(O)OP(=O)(O)O)[C@@H](O)[C@H]1O [ATP] | ATPase activity of A. baumannii MsbA in nanodiscs, measured at varying ATP and TBT1 concentrations |  |
| O=C(Nc1sc2c(c1C(=O)O)CCCC2)c1ccc(Cl)cc1 [TBT1] |  | ~13 |
